Experimental data: PMC9999251, “Pyrazole-based lamellarin O analogues: synthesis, biological evaluation and structure–activity relationships” (RSC Advances, 2023)

Assays:
[1] = Determination of HPLC–log P; type: physicochemical; conditions: reversed-phase HPLC on apHera C18 column; methanol / 0.01 M phosphate buffer pH 7.4; mean ± SD
Experimental: HPLC–log P values were determined using Shimadzu HPLC system equipped with apHera C18 column (10 × 6 mm, 5 μm, Supelco, Bellefonte, PA, USA). Each sample was dissolved in the internal standard mixture, consisting of triphenylene (99.9%, Carl Roth) and toluene (≥98%, Sigma-Aldrich). Analysis was performed at 1.5 mL min^−1 flow rate in the linear gradient where mobile phase consisted of methanol and 0.01 M phosphate buffer (pH 7.4). The HPLC–log P values were calculated from the measured retention times using previously published equation.[57]

HCT116 cells [2] = assay: Cell cycle distribution by flow cytometry (FACS); type: cell-based, human; conditions: HCT116, 72 h, lowest concentration of 5 μM; for G2/M phase: negative control 14.2 ± 1.1%; for G1 phase: negative control 49.5 ± 1.8%
Experimental: HCT116 cells (40 000 cells per well) were treated with the test compounds (6c, 6m) for 72 h in the concentration range of 5, 10 and 20 μM. After treatment cells were washed with DPBS (Sigma; modified, without calcium chloride and magnesium chloride) and trypsinized using a trypsin–EDTA solution (Gibco™, 0.05%). After additional washing with DPBS, cells were stained at +4 °C overnight using PI/HFS solution (50 μg mL^−1).[67] Samples were then analysed using Guava® easyCyte™ 8HT (Merck Millipore) flow cytometer with Guava Clean 3.1 software. The amount of debris was in the range of 9.2 ± 2.0%.

HCT116 cells [3] = assay: Viability staining via Calcein AM/Hoechst/PI, HCT116; type: cell-based, human; conditions: 20 µM, 24 h (Fig. S134 legend), method block: 4 μM, 96 h
Experimental: (§1) SW480, HT29 and HCT116 cells were seeded in 24-well plates in a cell density of 6000 cells per well and settled for 24 h. […] Cells were stained with propidium iodide (Sigma Aldrich, final concentration 2 μg mL^−1) and Hoechst 33342 (ThermoFisher Scientific, final concentration 0.5 μM) for 60 min and with Calcein AM (Merck, BioReagent, final concentration 50 μM) for 15 min, washed two times with PBS and finally covered with PBS for further analysis. Fluorescence microscopic evaluation was performed on a Evos FL Cell Imaging System (ThermoFisher Scientific).

SW480 cells [4] = assay: Cell viability (MTT assay), SW480; type: cell-based; conditions: Homo sapiens, SW480, 96 h, 96 h treatment, read-out: GI50 ± SD SW480
Experimental: (§2) SW480 (human colon adenocarcinoma, adherent, epithelial, ATCC number: CCL-228), HT29 (human colon adenocarcinoma, adherent, epithelial, ATCC number: HTB-38), and HCT116 (human colon adenocarcinoma, adherent, epithelial-like, ATCC number: CCL-247) cells were maintained in RPMI-1640 medium (Sigma-Aldrich). Medium was supplemented with heat-inactivated FBS (Biowest), penicillin–streptomycin (Sigma; with 10 000 units penicillin and 10 mg streptomycin per mL in 0.9% NaCl) and L-glutamine (Sigma; 200 mM solution). Cell cultures were cultivated at 37 °C, maintaining a humidified atmosphere consisting of 5% CO2. Gibco™ trypsin–EDTA (0.05%) was used for cell passage.
(§3) To evaluate cell viability, SW480, HT29, and HCT116 cells were harvested from culture flasks by trypsinization and seeded into 96-well plates in 4000 cells per well, 3000 cells per well and 4000 cells per well densities, respectively. After 24 h preincubation period, cells were treated in triplicates with nine different doses of each compound (6a–o and 7a–c) for 96 h. After treatment compound solutions were replaced with MTT solution (MTT reagent in PBS, […]) diluted in a 6 : 1 ratio in non-supplemented RPMI-1640 medium and were additionally incubated for 2 h. After incubation, the medium was removed, and formazan product was dissolved in DMSO. Optical densities were measured at 550 nm with TECAN Infinite® M200 PRO microplate reader using a reference wavelength of 690 nm to correct unspecific absorption. The quantity of viable cells was normalized to untreated controls. The GI50 values were calculated from dose–response curves.

HT29 cells [5] = assay: Cell viability (MTT assay), HT29; type: cell-based; conditions: Homo sapiens, HT-29, 96 h treatment, read-out: GI50 ± SD HT29
Experimental: as §2, §3

human serum albumin = molecular target: T1, human serum albumin (Homo sapiens, UniProt P02768); assay: Plasma protein binding (PPB), HPLC on albumin-bound stationary phase; type: in vitro ADME; conditions: pH 7.4, binding to human serum albumin, HPLC method
T1 construct: purchased Chiral Technologies, DAICEL Group, Europe SAS, France CHIRALPAK®HAS (50 × 3 mm, 5 μm)
Experimental: Retention times of the analytes were measured with Shimadzu HPLC system on the CHIRALPAK®HAS stationary phase (50 × 3 mm, 5 μm, Chiral Technologies, DAICEL Group, Europe SAS, France). The mobile phase A consisted of 50 mM aqueous ammonium acetate buffer (pH 7.4) and phase B of 2-propanol according to Valko et al.[65] Analysis was performed at prolonged 1 mL min^−1 flow rate in the linear gradient. Retention capacity factors (k′) were calculated by using DMSO or a substance with 0% HAS binding for systems' dead time (Rt0). The system was calibrated by injecting the reference compounds: acetylsalicylic acid (CAS 69-72-7), betamethasone (CAS 378-44-9), budesonide (CAS 5133-22-3), carbamazepine (CAS 298-46-4), cimetidine (CAS 51481-61-9), ciprofloxacin (CAS 85721-33-1), indomethacin (CAS 53-86-1), isoniazid (CAS 54-85-3), metronidazole (CAS 443-48-1), nicardipine (CAS 55985-32-5), nizatidine (CAS 76963-41-2) and warfarin (CAS 81-81-2) obtained from Sigma-Aldrich, diclofenac (CAS 15307-86-5) from EMD Chemicals Inc., flumazenil (CAS 78755-81-4) from ABX and ketoprofen (CAS 22071-15-4) from LKT Labs. The logarithmic capacity factors of the references' Rt (log(k′)) on the HSA column were plotted against the %PPB values from literature. The slope and the intercept were used to convert the log(k′) of the compounds (6a, c, f, h, m–o) to %PPB using the regression equation.[66]

SW480 cells [6] = assay: Viability staining via Calcein AM/Hoechst/PI, SW480; type: cell-based, human; conditions: 20 µM, 24 h (Fig. S135 legend), method block: 4 μM, 96 h
Experimental: as §1

HT29 cells [7] = assay: Viability staining via Calcein AM/Hoechst/PI, HT29; type: cell-based, human; conditions: 20 µM, 24 h (Fig. S136 legend), method block: 4 μM, 96 h
Experimental: SW480, HT29 and HCT116 cells were seeded in 24-well plates in a cell density of 6000 cells per well and settled for 24 h. Afterwards cells were treated with 4 μM of test compounds 6a, c, f, h, m–o for 96 h. Cells were stained with propidium iodide (Sigma Aldrich, final concentration 2 μg mL^−1) and Hoechst 33342 (ThermoFisher Scientific, final concentration 0.5 μM) for 60 min and with Calcein AM (Merck, BioReagent, final concentration 50 μM) for 15 min, washed two times with PBS and finally covered with PBS for further analysis. Fluorescence microscopic evaluation was performed on a Evos FL Cell Imaging System (ThermoFisher Scientific).

HCT116 cells [8] = assay: Cell viability (MTT assay), HCT116; type: cell-based; conditions: Homo sapiens, HCT-116, 96 h treatment, read-out: GI50 ± SD HCT116
Experimental: as §2, §3

SW620 = system: SW620; design: method as in PMID 24979269; conditions: SW620 colorectal cancer cells; read-out: IC50 cytotoxicity; cited from earlier work
SW620/Ad300 = system: SW620/Ad300; design: method as in PMID 24979269; conditions: SW620/Ad300 multi-drug resistant daughter cell line; read-out: IC50 cytotoxicity; cited from earlier work

T1 sequence (P02768 25-609): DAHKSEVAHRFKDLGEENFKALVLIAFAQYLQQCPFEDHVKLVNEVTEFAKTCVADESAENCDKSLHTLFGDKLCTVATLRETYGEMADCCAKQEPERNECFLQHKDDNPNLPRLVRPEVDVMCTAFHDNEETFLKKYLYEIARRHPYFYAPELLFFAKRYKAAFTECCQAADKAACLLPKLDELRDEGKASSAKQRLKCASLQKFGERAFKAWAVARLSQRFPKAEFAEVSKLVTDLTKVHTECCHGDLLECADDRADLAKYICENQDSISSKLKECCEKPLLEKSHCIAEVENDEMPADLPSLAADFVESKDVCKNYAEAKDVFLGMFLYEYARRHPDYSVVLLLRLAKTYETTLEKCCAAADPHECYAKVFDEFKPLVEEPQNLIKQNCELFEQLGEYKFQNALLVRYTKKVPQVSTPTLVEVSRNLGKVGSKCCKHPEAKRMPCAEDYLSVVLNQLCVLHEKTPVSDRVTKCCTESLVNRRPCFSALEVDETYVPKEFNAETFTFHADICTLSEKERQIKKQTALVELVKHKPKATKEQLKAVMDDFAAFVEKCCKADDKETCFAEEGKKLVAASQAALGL

Row | chromatographic logP [1] | GI50 (SW480 cells [4]) | GI50 (HT29 cells [5]) | melting point | fraction unbound (human serum albumin) | GI50 (HCT116 cells [8]) | Structure (SMILES) | G2/M phase (HCT116 cells [2]) | G1 phase (HCT116 cells [2]) | PI staining (necrosis) (HCT116 cells [3]) | PI staining (necrosis) (SW480 cells [6]) | PI staining (necrosis) (HT29 cells [7]) | IC50 (SW620) | IC50 (SW620/Ad300)
1 | 4.453 ± 0.005 | 5.52 ± 3.72 µM | 4.98 ± 2.62 µM | 114 to 115 °C | 0.04 | 1.96 ± 0.266 µM | CCOC(=O)c1c(-c2ccccc2)c(-c2ccccc2)nn1CC(=O)c1ccc(F)cc1 [Compound 6c, Ethyl 1-[2-(4-fluorophenyl)-2-oxoethyl]-3,4-diphenyl-1H-pyrazole-5-carboxylate] | 25.0 ± 0.5% | 63.2 ± 1.4% | no involvement of necrosis | no involvement of necrosis | no involvement of necrosis | – | –
2 | 4.545 ± 0.006 | 1.44 ± 0.173 µM | 2.69 ± 0.11 µM | 104 to 105 °C | 0.034 | 1.46 ± 0.247 µM | CCOC(=O)c1c(-c2ccccc2)c(-c2ccc(F)cc2)nn1CC(=O)c1ccc(F)cc1 [Compound 6m, Ethyl 3-(4-fluorophenyl)-1-[2-(4-fluorophenyl)-2-oxoethyl]-4-phenyl-1H-pyrazole-5-carboxylate] | 26.9 ± 0.8% | 61.0 ± 1.8% | no involvement of necrosis | no involvement of necrosis | no involvement of necrosis | – | –
3 | – | – | – | – | – | – | COC(=O)c1c(-c2ccc(O)cc2)c(-c2ccc(O)cc2)cn1CC(=O)c1ccc(OC)cc1 [Lamellarin O] | – | – | – | – | – | 20 µM | 22.3 µM
